The target in experiment [1] is T1, hM1 mAChR (Homo sapiens, UniProt P11229).
T1 construct: expressed in transfected cells
T1 sequence (P11229 1-460): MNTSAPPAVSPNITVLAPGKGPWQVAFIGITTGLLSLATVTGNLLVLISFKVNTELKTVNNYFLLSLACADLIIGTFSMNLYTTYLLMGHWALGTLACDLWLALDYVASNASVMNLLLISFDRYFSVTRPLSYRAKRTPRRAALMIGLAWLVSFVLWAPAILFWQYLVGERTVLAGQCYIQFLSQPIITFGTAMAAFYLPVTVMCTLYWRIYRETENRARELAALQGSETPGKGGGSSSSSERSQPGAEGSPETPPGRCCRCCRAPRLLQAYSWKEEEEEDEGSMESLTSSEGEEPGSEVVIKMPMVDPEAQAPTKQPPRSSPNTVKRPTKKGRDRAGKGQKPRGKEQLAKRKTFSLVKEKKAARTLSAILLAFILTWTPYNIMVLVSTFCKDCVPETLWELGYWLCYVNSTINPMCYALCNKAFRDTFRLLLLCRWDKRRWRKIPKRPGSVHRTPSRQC
As to the kind of experiment: Whole-cell [3H]NMS equilibrium competition radioligand binding. The following applies: [3H]NMS binding; for α (binding cooperativity with ACh): antilog. How it is done: To determine the affinity (pKB) of the allosteric modulators for the allosteric site, and their binding cooperativity with ACh (log αACh) at the M1 mAChR, whole cell equilibrium competition binding studies were performed, using [^3H]NMS to label the orthosteric site.
FlpIn Chinese hamster ovary (CHO) cells stably expressing the hM1 mAChR were grown in Dulbecco’s modified Eagle’s medium (DMEM) (Invitrogen, Carlsbad, CA) supplemented with 5% foetal bovine serum (FBS) (Thermo-Trace, Melbourne, Australia) and 300 μg/mL G418 (Invitrogen, Carlsbad, CA). The cells were plated at 50,000 cells per well of 96-well white clear bottom plates (Greiner Bio-one, Kremsmünster, Austria), and were grown overnight. The following day, cells were washed twice with Phosphate Buffered Saline (PBS), and incubated with increasing concentrations of ACh (Sigma) in the absence or presence of increasing concentrations of each modulator and 0.2 nM [^3H]NMS (PerkinElmer Life Sciences) in binding buffer (20 mM HEPES, 100 mM NaCl, 10 mM MgCl2, pH 7.4) for 5 h at room temperature. Nonspecific binding was determined using atropine at the final concentration of 10 μM. The assays were terminated by rapid removal of the unbound radioligand followed by two washes with 100 μL/well ice-cold 0.9% NaCl buffer. Radioactivity was determined by addition of 100 μL/well Ultima gold (PerkinElmer Life Sciences) and counting in a MicroBeta plate reader (PerkinElmer Life Sciences).
Binding interaction studies with allosteric ligands were fitted to the following allosteric ternary complex model [Eq. (2)][15] Y=Bmax|A|/[Λ]+[KAKB/α^′[B]+KB][1+[I]/K1+[B]/KB+α[I][B]/KIKB] where Bmax is the total number of receptors, [A], [B] and [I] denote the concentrations of radioligand, allosteric modulator, and orthosteric ligand, respectively; KA, KB and KI are their respective equilibrium dissociation constants. α’ and α are the affinity cooperativity factors between the allosteric ligand and radioligand or the allosteric modulator and ACh, respectively. Values of α or α’ > 1 denote positive cooperativity, values < 1 but > 0 denote negative cooperativity, and a value of 1 indicates neutral coopera-tivity.

In experiment [2] the target is T1, hM1 mAChR. The experiment is described as follows: IP1 accumulation assay (ACh concentration-response curves in absence or presence of modulator). In kind it is cell-based. The following applies: for activation at 1 µM: read-out: Δbaseline [1 μM]: change in basal response in presence of M1 PAM compared to control curve; for activation at 10 µM: read-out: Δbaseline [10 μM]: change in basal response in presence of M1 PAM compared to control curve; for log τB (logarithm of intrinsic efficacy of the modulator) / log αβ (logarithm of functional cooperativity between ACh and modulator): operational model; for log αβ (logarithm of functional cooperativity between ACh and modulator): pKB constrained to binding value. How it is done: Functional activity of the synthesized analogues as racemic mixtures was investigated in IP1 accumulation assays at the M1 mAChR, as described previously.[13–14] ACh concentration-response curves were generated in the absence or presence of a 1 and 10 μM concentration of each modulator. The change in baseline activity (Δbaseline) is an approximate measure of direct allosteric agonism (τB), whereas the pEC50 shift (ΔpEC50) is an approximate measure of functional cooperativity (αβ) of each modulator with ACh in the investigated signalling pathway. We aimed to identify modulators with various degrees of allosteric agonism and modulatory effects on ACh response, as these could generate distinct in vivo outcomes for applications in different conditions in the CNS or gastrointestinal (GI) tract.[[10g,h,j]]
(§1) The compounds were then fully characterised in two functional assays (Figure 2C and D); the Gq-coupled IP1 accumulation assay (Figure S2), which was used for the initial screening of the compounds, and a β-arrestin 2 recruitment assay (Figure S3). The operational efficacy (τB) values for the modulators and their functional cooperativity estimates with ACh (logαβACh) at both signalling pathways were estimated by applying an operational model of allosterism and agonism to the data [Eq. (3)],[16] and are listed in Table 5.
FlpIn CHO cells stably expressing the hM1 mAChR were seeded at 25000 per well of 96-well transparent cell culture plates and grown overnight. […] Cells were then stimulated with increasing concentration of ACh in the absence or presence of increasing concentrations of each modulator for 1 h at 37°C. […] Seven μL of cell lysates were transferred into wells of 384-well Proxiplates (Perki-nElmer Life Sciences), and IP1 levels were measured using the IP-One assay kit (Cisbio, Codolet, France). […] The signal was expressed as the HTRF ratio, interpolated from the standard curve, and normalized to the maximum response to ACh.
Changes in both baseline and pEC50 were quantified by subtracting the estimates at each M1 PAM concentrations with the control values. Propagation of the error on baseline and potency values were determined as follows [Eq. (1)]: σΔ=σPAM2+σcont.2 where σΔ is the standard error of the mean (SEM) for the change in value, and σPAM and σcont. are the SEM from the three-parameter logistic equation analysis in presence or absence of M1 PAM, respectively.
(§2) Functional interaction studies between ACh and allosteric modulators in IP1 and β-arrestin 2 recruitment assays were analysed according to a three-parameter logistic equation or the following operational model of allosterism and agonism [Eq. (3)].[16] E=Basal+(Em−Basal)([A](KB+αβ[B])+τB[B]EC50)^n/EC50n(KB+[B])^n+([A](KB+αβ[B])+τB[B]EC50)^n where Em is the maximal possible system response, and Basal is the response in the absence of agonist. [A] and [B] are concentrations of orthosteric and allosteric ligands, respectively. KB is the equilibrium dissociation constant of allosteric ligand, and EC50 is the concentration of orthosteric agonist required to achieve half maximal response. α and β represent the magnitude of the allosteric effects on orthosteric ligand affinity and efficacy, respectively; τB is the efficacy of allosteric ligand, and n is the slope factor of the transducer function that links occupancy to response.

The next experiment deals with T2, M1 mAChR (Homo sapiens, UniProt P11229).
T2 construct: expressed in transfected cells; host or cells: parental FlpIn CHO cells (transient, PEI)
T2 sequence (P11229 1-460): T1 sequence (P11229 1-460)
The experiment is described as follows: β-arrestin 2 recruitment assay (BRET). In kind it is cell-based. The following applies: for αβ (functional cooperativity with ACh) / τB (intrinsic efficacy of the modulator): antilog, in parentheses; for log τB (logarithm of intrinsic efficacy of the modulator) / log αβ (logarithm of functional cooperativity between ACh and modulator): operational model; for log αβ (logarithm of functional cooperativity between ACh and modulator): pKB constrained to binding value.
Excerpt: as §1
Parental FlpIn CHO cells were plated at 30000 cells/well of 96-well white Culture plates (Perkin Elmer Life Sciences) and transiently transfected with 10 ng/well of M1 Renilla luciferase (Rluc)-8 and 40 ng/well of YFP-β-arrestin 2 using linear polyethyleneimine (PEI/DNA ratio 6:1) diluted in 150 mM NaCl. DNA:PEI complexes were formed by 15 min incubation at room temperature then added to the cells and incubated at 37°C for 24 h prior to use. Cells were then washed and equilibrated in Hanks’ balanced salt solution for 1 h at 37°C. Coelenterazine h at a final concentration of 5 μM was added to each well, followed by addition of increasing concentrations of ACh in the absence or presence of increasing concentrations of each modulator. Lumines-cence and fluorescence signals were measured 5 min after agonist stimulation using the LUMIstar Omega plate reader (BMG LabTech, Offenburg, Germany). […] Data were then normalized to the maximum response to ACh.
as §2
(Recruitment of arrestin is a read-out of receptor activation apart from second messengers.)

[3] abbreviates: allosteric ternary complex model, mean ± SEM, read-out: pKB (negative logarithm of the allosteric modulator equilibrium dissociation constant) (converted).
Where [4] appears, read: 1 μM modulator, FlpIn CHO hM1 cells, mean ± SEM, 3 experiments.
The mark [5] stands for this setting: 10 μM modulator, FlpIn CHO hM1 cells, mean ± SEM, 3 experiments.
Setting [6] is: IP1 accumulation, antilog, in parentheses.

Read-outs that look alike come from different tables or passages of the source.

Consider `Cn1cc(-c2ccc(COc3ncccc3-c3cc(=O)n(C4CCCCC4O)cn3)cc2)cn1` (stereo not shown) [Compound 26a, 3-(2-Hydroxycyclohexyl)-6-(2-((4-(1-methyl-1H-pyrazol-4-yl)benzyl)oxy)pyridin-3-yl)pyrimidin-4(3H)-one], for which the Kb on hM1 mAChR [1] (setting [3]) is 3.31 µM; at hM1 mAChR [1] (antilog of pKB, in parentheses, read-out: KB (converted)), 3 µM. The “α (binding cooperativity with ACh)” value at hM1 mAChR [1] (in parentheses) turned out to be 120. Besides, the “log αACh (logarithm of binding cooperativity between ACh and modulator)” value at hM1 mAChR [1] (mean ± SEM) is 2.08±0.13. For the same compound, the activation at 1 µM at hM1 mAChR [2] (setting [4]) turned out to be 100%. The activation at 10 µM on hM1 mAChR [2] (setting [5]) was 100%. Moreover, the entries for the “τB (intrinsic efficacy of the modulator)” value at hM1 mAChR [2] (setting [6]) and at M1 mAChR were 3 and 2, respectively. The “log τB (logarithm of intrinsic efficacy of the modulator)” value (“log τB” for short) on hM1 mAChR [2] (IP1 accumulation) turned out to be 0.54±0.02; on M1 mAChR it was 0.28±0.04. Besides, the “log αβ (logarithm of functional cooperativity between ACh and modulator)” value (“log αβ” for short) on hM1 mAChR [2] (IP1 accumulation) is given as 1.89±0.07; at M1 mAChR, 1.98±0.10. For the same compound, on M1 mAChR, the “αβ (functional cooperativity with ACh)” value came out at 95.

Take `O=c1cc(-c2ccccc2OCc2ccc(-n3cccn3)nc2)ncn1C1CCCCC1O` (stereo not shown) [Compound 27b, 6-(2-((6-(1H-Pyrazol-1-yl)pyridin-3-yl)methoxy)phenyl)-3-(2-hydroxycyclohexyl)pyrimidin-4(3H)-one]: the Kb on hM1 mAChR [1] (setting [3]) is 15.8 µM. For the same compound, at hM1 mAChR [1] (in parentheses), the “α (binding cooperativity with ACh)” value is listed as 151. Further, the “log αACh (logarithm of binding cooperativity between ACh and modulator)” value at hM1 mAChR [1] (mean ± SEM) stood at 2.18±0.19. On hM1 mAChR [2] (setting [4]), the “ΔpEC50 [1 μM]: change in ACh pEC50 in presence of M1 PAM compared to control curve” value is 0.96±0.18 and the activation at 1 µM amounted to 38.5 ± 3.8%. For the same compound, at hM1 mAChR [2] (setting [5]), the “ΔpEC50 [10 μM]: change in ACh pEC50 in presence of M1 PAM compared to control curve” value was 1.50±0.32 and the activation at 10 µM was 78.6 ± 2.8%. In addition, on hM1 mAChR [2] (setting [6]), the “αβ (functional cooperativity with ACh)” value is given as 112 and the “τB (intrinsic efficacy of the modulator)” value is on record as 3. At hM1 mAChR [2] (IP1 accumulation), the “log τB” value stood at 0.54±0.04; the “log αβ” value came to 2.05±0.12. Further, on M1 mAChR, the “αβ (functional cooperativity with ACh)” value amounted to 56; the “τB (intrinsic efficacy of the modulator)” value amounted to 0.4; the “log τB” value is “–0.36±0.12”; the “log αβ” value was determined as 1.75±0.11.

For the origin of these results see article PMC7616174, “Development of Novel 4-Arylpyridin-2-one and 6-Arylpyrimidin-4-one Positive Allosteric Modulators of the M1 Muscarinic Acetylcholine Receptor” (ChemMedChem, 2020).
